Values of other authors in patent US20110295365A1, “Anti-viral compositions and methods for administration” (Searete LLC, a limited liability corporation of the State …, priority 2010, published 2011).

Columns and labels:
[1] = in vivo

For `O=C[C@@H](O)[C@@H](O)[C@H](O)[C@H](O)COP(=O)(O)O` [mannose 6-phosphate], the “inhibition of viral entry” value (varicella zoster virus) is given as “inhibition of viral entry”.

In the case of enfuvirtide, the “passage across the placenta from mother to child” value [1] is listed as “do not efficiently pass from mother to child”.

In the case of heparin, the “inhibition of viral entry” value (varicella zoster virus) is given as “inhibition of viral entry”.
